# Test results: BindingDB's records for doi:10.1124/jpet.104.070086 (University of North Carolina At Chapel Hill, 2004)
# Target: Histamine H1 receptor (Cavia porcellus, UniProt P31389)
# Sequence (P31389 whole entry): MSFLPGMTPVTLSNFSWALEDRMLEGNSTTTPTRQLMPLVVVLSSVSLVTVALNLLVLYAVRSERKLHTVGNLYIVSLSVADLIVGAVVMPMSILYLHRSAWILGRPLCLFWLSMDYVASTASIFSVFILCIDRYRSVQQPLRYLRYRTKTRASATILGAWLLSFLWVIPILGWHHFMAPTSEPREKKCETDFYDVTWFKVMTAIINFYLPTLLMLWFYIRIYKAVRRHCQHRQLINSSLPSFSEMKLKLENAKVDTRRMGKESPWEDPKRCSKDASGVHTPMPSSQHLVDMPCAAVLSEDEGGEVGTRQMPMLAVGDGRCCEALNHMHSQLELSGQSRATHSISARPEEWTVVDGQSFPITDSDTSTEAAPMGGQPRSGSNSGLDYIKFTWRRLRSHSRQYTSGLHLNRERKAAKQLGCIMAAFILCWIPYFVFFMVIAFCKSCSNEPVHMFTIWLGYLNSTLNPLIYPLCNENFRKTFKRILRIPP
smiles,measurement,value
Cc1ccc(C(=CCN2CCCC2)c2ccccn2)cc1 [CAS_486-12-4],Ki,0.93 nM
